Values of other authors as cited in patent US20090214716A1 (priority 2005, published 2009).

Assays:
[1] = target: T1, A2A receptors that are located on the platelet surface (Homo sapiens, UniProt P29274); conditions: chronic caffeine consumption
T1 construct: up-regulation of endogenous adenosine receptors in normal subjects; host or cells: human platelets of normal subjects (endogenous)

[2] = caffeine 0.3 mg/kg/hr vs placebo

T1 sequence (P29274 whole entry): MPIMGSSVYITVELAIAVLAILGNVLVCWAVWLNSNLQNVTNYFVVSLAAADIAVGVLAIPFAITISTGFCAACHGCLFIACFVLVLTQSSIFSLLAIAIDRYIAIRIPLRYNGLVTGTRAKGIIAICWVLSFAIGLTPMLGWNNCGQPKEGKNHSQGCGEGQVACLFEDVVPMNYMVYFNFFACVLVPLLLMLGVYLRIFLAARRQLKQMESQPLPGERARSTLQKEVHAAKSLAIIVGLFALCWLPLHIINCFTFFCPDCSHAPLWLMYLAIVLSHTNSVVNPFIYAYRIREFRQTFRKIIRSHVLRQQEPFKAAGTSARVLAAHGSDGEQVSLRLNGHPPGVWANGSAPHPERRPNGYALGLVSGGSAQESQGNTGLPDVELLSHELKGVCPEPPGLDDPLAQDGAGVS

For `Cn1c(=O)c2c(ncn2C)n(C)c1=O` [caffeine, 1,3,7-trimethylxanthine], the platelet aggregability [1] is listed as “reduction in platelet aggregability”, the “effect on endogenous adenosine receptors” value ([1]; normal subjects) is listed as “sensitization and/or up-regulation of endogenous adenosine receptors” and the “performance on cognitive tests” value [2] is listed as “performed better on cognitive tests”. For the same compound, the reported sleepiness [2] was “reported feeling sleepier than their placebo counterparts”.
